Laboratory results reported in paper PMC3870039 (ACS chemical biology, 2013).
pIC50: −log10 of the molar value.

Molecular target: human topoisomerase IIα (Homo sapiens, UniProt P11388)
Experiment: competition against DNA cleavage induced by […] 8-methyl-3′-
Assay type: biochemical

Sequence of human topoisomerase IIα (P11388 whole entry): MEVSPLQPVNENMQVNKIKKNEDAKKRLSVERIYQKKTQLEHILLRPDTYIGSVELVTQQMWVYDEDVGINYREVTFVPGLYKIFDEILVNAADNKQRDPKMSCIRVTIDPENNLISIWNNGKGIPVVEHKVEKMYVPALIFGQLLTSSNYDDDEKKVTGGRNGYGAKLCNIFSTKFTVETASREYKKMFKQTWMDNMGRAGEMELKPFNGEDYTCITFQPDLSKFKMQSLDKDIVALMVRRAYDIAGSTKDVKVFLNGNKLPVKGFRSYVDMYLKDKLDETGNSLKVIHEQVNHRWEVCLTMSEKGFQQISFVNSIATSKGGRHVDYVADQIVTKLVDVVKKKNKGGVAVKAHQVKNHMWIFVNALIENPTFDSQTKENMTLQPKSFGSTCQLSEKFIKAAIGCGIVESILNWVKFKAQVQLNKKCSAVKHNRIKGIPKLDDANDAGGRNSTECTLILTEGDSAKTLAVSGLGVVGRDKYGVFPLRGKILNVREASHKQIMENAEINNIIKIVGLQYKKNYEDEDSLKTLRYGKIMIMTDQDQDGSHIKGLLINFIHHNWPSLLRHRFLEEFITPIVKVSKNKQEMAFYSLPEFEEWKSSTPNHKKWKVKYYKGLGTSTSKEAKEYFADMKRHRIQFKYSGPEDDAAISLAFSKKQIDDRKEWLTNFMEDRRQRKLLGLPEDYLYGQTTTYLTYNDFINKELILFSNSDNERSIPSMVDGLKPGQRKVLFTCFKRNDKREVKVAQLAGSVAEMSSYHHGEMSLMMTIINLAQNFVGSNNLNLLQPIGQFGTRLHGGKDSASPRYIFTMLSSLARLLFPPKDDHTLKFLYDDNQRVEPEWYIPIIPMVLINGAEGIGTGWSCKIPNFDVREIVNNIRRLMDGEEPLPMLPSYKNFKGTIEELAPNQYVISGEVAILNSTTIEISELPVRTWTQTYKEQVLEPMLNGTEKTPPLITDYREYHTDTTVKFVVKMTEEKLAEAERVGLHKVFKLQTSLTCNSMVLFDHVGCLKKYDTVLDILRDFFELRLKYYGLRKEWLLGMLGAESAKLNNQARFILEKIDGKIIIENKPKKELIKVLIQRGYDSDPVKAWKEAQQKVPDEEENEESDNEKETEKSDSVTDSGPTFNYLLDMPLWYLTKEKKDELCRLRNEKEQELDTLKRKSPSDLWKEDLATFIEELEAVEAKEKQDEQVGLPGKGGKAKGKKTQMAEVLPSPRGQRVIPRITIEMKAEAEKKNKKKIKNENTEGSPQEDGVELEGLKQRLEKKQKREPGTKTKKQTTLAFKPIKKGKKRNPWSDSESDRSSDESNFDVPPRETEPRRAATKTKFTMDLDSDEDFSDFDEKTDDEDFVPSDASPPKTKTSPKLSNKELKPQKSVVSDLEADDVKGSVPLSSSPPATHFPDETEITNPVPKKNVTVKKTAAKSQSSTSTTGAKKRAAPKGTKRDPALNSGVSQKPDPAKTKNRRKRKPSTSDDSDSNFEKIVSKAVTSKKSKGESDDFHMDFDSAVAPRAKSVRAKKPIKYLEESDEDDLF

NCC1CCN(c2cc3c(cc2F)c(=O)c(C(=O)O)cn3C2CC2)C1 (stereo not shown) [8-H-3′-(AM)P-FQ]
pIC50: ~4.30
